US9518038B2, “Condensation product of theanine derivative and carboxylic acid coumarin derivative, its intermediate, preparation method and use thereof” (SHANDONG YINGDONG YINGHAO BIOTECHNOLOGY, INC., priority 2012, dated 2016)
Where two headings read alike, the source gives them in different places.

Key:
[1] = system: highly metastatic Lewis lung cancer cell lines; assay: MTT growth inhibition, LLC cells; type: cell-based, mouse; details: 72 h after treatment, read-out: Drug concentration (IC50) at which 50% cancer cells survived
Excerpt: (§1) Cell lines and cell culture: human lung cancer cells A549 and H460, human breast cancer cells MCF-7 and MDA-MB-231, human gastric cancer cells BGC-823, human prostate cancer cells PC-3, human chronic leukemia cells K562, human lymphoma cells U937, human liver cancer cells SMMC7721 and HepG2, human colon cancer cells HT29, human pancreatic cancer cells PANC-1 and BxPC3, human cervical cancer Hela cell lines, human brain tumor cells Daoy, human neuroma cells D54 and human oral epidermoid cancer cells KBV200 line with strong drug resistance, mouse melanoma cells B16, and highly metastatic Lewis lung cancer cell lines were purchased from American Type Culture Collection of the U.S. These cells were cultured with DMEM and RPMI-1640 culture solutions separately.
(§2) The procedure was as follows:
(§3) (1) 0.25% trypsin was used to digest cancer cells in a logarithmic growth phase to prepare a single-cell suspension, the concentration of cells was adjusted to 5×10^4/mL, and the adjusted suspension was inoculated into a 96-well culture plate with 100 μl per well;
(§4) (2) The culture plate was transferred into a 37° C. incubator with a saturated humidity and 5% of CO2 and cultured for 24 h; the compounds and the intermediates thereof obtained in embodiments 1-7 and the compound as represented by formula (IIIa) or the positive control anti-cancer drug with the concentration of 1-1000 μM/L were added to enable the final concentration to be 0.1-1500 μM/L. Control wells (only added with 200 μl of cell suspension) and drug-free blank control wells (containing the solvent of 0.01% DMSO) were set, each group included 8 wells, and the plate was placed into the 37° C. incubator with saturated humidity and 5% of CO2 for culturing;
(§5) (3) The 96-well plate was taken out at 48 h and 72 h after dosing, the original culture medium was carefully removed by suction, 100 μl of serum-free DMEM culture medium and 10 μl of MTT (5 mg/mL) solution were added in each well. The plate was continuously cultured for another 4 h and then the culture was terminated;
(§6) (4) The supernatant in the wells was carefully removed by suction, each well was added with 150 μl of DMSO and shaked at room temperature for 10-15 min to fully dissolve crystals.
(§7) (5) Colorimetric analysis: the wavelength was selected as 570 nm, the light absorbance (A value) of each well was determined on the microplate reader and the results were recorded; the experiment was repeated for three times;
(§8) (6) the experimental results were calculated according to the following formula: relative survival rate=(A value of each experimental group/A value of cell control group)×100%
(§9) Calculation of median-effect concentration (IC50, namely the drug concentration at which the inhibition rate is 50%, also known as half inhibitory concentration):
(§10) IC50 of the detected component was calculated by using a regression equation.

human neuroma cells D54 = assay: MTT growth inhibition, D54 cells; type: cell-based; details: 72 h after treatment, read-out: Drug concentration (IC50) at which 50% cancer cells survived
Excerpt: as §1, §2, §3, §4, §5, §6, §7, §8, §9, §10

[2] = system: human pancreatic cancer cells BxPC3; assay: MTT growth inhibition, BxPc3 cells; type: cell-based; details: read-out: Drug concentration (IC50) at which 50% cancer cells survived
Excerpt: as §1, §2, §3, §4, §5, §6, §7, §8, §9, §10

[3] = system: human lung cancer cells A549; assay: MTT growth inhibition, A549 cells; type: cell-based; details: 72 h after treatment, read-out: Drug concentration (IC50) at which 50% cancer cells survived
Excerpt: as §1, §2, §3, §4, §5, §6, §7, §8, §9, §10

[4] = system: human liver cancer cells SMMC7721; assay: MTT growth inhibition, SMMC7721 cells; type: cell-based; details: SMMC-7721, S-7721 (SMMC7721), 72 h after treatment, read-out: Drug concentration (IC50) at which 50% cancer cells survived
Excerpt: as §1, §2, §3, §4, §5, §6, §7, §8, §9, §10

[5] = system: human colon cancer cells HT29; assay: MTT growth inhibition, HT29 cells; type: cell-based; details: HT-29, 72 h after treatment, read-out: Drug concentration (IC50) at which 50% cancer cells survived
Excerpt: as §1, §2, §3, §4, §5, §6, §7, §8, §9, §10

[6] = system: human lymphoma cells U937; assay: MTT growth inhibition, U937 cells; type: cell-based; details: Homo sapiens, U-937, 72 h after treatment, read-out: Drug concentration (IC50) at which 50% cancer cells survived
Experimental: as §2, §5, §6, §7, §8, §10

[7] = system: human cervical cancer Hela cell lines; assay: MTT growth inhibition, Hela cells; type: cell-based; details: 72 h after treatment, read-out: Drug concentration (IC50) at which 50% cancer cells survived
Excerpt: as §1, §2, §3, §4, §5, §6, §7, §8, §9, §10

[8] = system: human breast cancer cells MDA-MB-231; assay: MTT growth inhibition, MDA-MB-231 cells; type: cell-based; details: 72 h after treatment, read-out: Drug concentration (IC50) at which 50% cancer cells survived
Excerpt: as §1, §2, §3, §4, §5, §6, §7, §8, §9, §10

[9] = system: human pancreatic cancer cells PANC-1; assay: MTT growth inhibition, PANC-1 cells; type: cell-based; details: 72 h after treatment, read-out: Drug concentration (IC50) at which 50% cancer cells survived
Excerpt: as §1, §2, §3, §4, §5, §6, §7, §8, §9, §10

[10] = system: human prostate cancer cells PC-3; assay: MTT growth inhibition, PC-3 cells; type: cell-based; details: 72 h after treatment, read-out: Drug concentration (IC50) at which 50% cancer cells survived
Excerpt: as §1, §2, §3, §4, §5, §6, §7, §8, §9, §10

[11] = system: human lung cancer cells H460; assay: MTT growth inhibition, H460 cells; type: cell-based; details: NCI-H460, 72 h after treatment, read-out: Drug concentration (IC50) at which 50% cancer cells survived
Excerpt: as §1, §2, §3, §4, §5, §6, §7, §8, §9, §10

[12] = system: human oral epidermoid cancer cells KBV200; assay: MTT growth inhibition, KBV200 cells; type: cell-based; details: 72 h after treatment, read-out: Drug concentration (IC50) at which 50% cancer cells survived
Excerpt: as §1, §2, §3, §4, §5, §6, §7, §8, §9, §10

[13] = system: human liver cancer cells HepG2; assay: MTT growth inhibition, HepG2 cells; type: cell-based; details: 72 h after treatment, read-out: Drug concentration (IC50) at which 50% cancer cells survived
Excerpt: as §1, §2, §3, §4, §5, §6, §7, §8, §9, §10

[14] = system: human chronic leukemia cells K562; assay: MTT growth inhibition, K562 cells; type: cell-based; details: 72 h after treatment, read-out: Drug concentration (IC50) at which 50% cancer cells survived
Excerpt: as §1, §2, §3, §4, §5, §6, §7, §8, §9, §10

mouse melanoma cells B16 = assay: MTT growth inhibition, B16 cells; type: cell-based; details: 72 h after treatment, read-out: Drug concentration (IC50) at which 50% cancer cells survived
Excerpt: as §1, §2, §3, §4, §5, §6, §7, §8, §9, §10

[15] = system: human breast cancer cells MCF-7; assay: MTT growth inhibition, MCF-7 cells; type: cell-based; details: MCF7, 72 h after treatment, read-out: Drug concentration (IC50) at which 50% cancer cells survived
Excerpt: as §1, §2, §3, §4, §5, §6, §7, §8, §9, §10

[16] = system: Caski human cervical cancer cells; assay: MTT growth inhibition, Caski cells; type: cell-based; details: Ca-Ski, 72 h after treatment, read-out: Drug concentration (IC50) at which 50% cancer cells survived
[17] = system: human brain tumor cells Daoy; assay: MTT growth inhibition, Daoy cells; type: cell-based; details: 72 h after treatment, read-out: Drug concentration (IC50) at which 50% cancer cells survived
Excerpt: as §1, §2, §3, §4, §5, §6, §7, §8, §9, §10

[18] = system: human gastric cancer cells BGC-823; assay: MTT growth inhibition, BGC-823 cells; type: cell-based; details: 72 h after treatment, read-out: Drug concentration (IC50) at which 50% cancer cells survived
Excerpt: as §1, §2, §3, §4, §5, §6, §7, §8, §9, §10

[19] = system: human breast cancer cells MCF-7 xenograft; assay: In-vivo growth of MCF-7 xenografts in nude mice; design: species or system BALB/c nude mice; details: positive controls: cisplatin 1.5 mg/kg/day, cyclophosphamide 60 mg/kg/2 day, endostar 8 mg/kg
Experimental: (§11) RPMI1640 and DMEM culture solutions: Hyclone Company; inactivated fetal bovine serum: Hyclone Company, preserved at −20° C.; trypsin: Amersco Company; and 0.4% trypan blue: Sigma Company;
(§12) (3) Observation of growth of tumors in nude mice: the activities (including food intake, traits of urine and stool, mental state and the like) of the nude mice and the tumor growth time and growth situation of the transplanted tumors were observed every day, the body weight and the size of the tumors were measured once every 2-3 days. The long diameter a and the short diameter b (mm) of each tumor were measured by a vernier caliper to calculate the volume, wherein the volume V=π1/2·ab^2 (mm^3);
(§13) (4) sacrifice of animals: the mice were anesthetized and photoed after treatment experiments; the nude mice were sacrificed by breaking neck, the tumor tissues were stripped under sterile conditions and the weight of the tumors was weighed; and the effects of the drugs on pathology and toxicity of the various organs and tissues were detected.

[20] = system: human cervical cancer cells Hela xenograft; assay: In-vivo growth of Hela xenografts in nude mice; design: species or system BALB/c nude mice; details: positive controls: cisplatin 1.5 mg/kg/day, endostar 8 mg/kg
Experimental: as §11, §12, §13

[21] = system: human breast cancer cells MDA-MB231 xenograft; assay: In-vivo growth of MDA-MB231 xenografts in nude mice; design: species or system BALB/c nude mice; details: MB-231 xenograft; positive controls: cisplatin 1.5 mg/kg/day, cyclophosphamide 60 mg/kg/2 day, endostar 8 mg/kg
Experimental: as §11, §12, §13

[22] = system: human liver cancer cells SMMC7721 xenograft; assay: In-vivo growth of SMMC7721 xenografts in nude mice; design: species or system BALB/c nude mice; details: S-7721 xenograft; positive controls: cisplatin 1.5 mg/kg/day, cyclophosphamide 60 mg/kg/2 day, endostar 8 mg/kg
Experimental: as §11, §12, §13

[23] = system: human lung cancer cells A549 xenograft; assay: In-vivo growth of A549 xenografts in nude mice; design: species or system BALB/c nude mice; details: positive controls: cisplatin 1.5 mg/kg/day, cyclophosphamide 60 mg/kg/2 day, endostar 8 mg/kg
Experimental: as §11, §12, §13

[24] = system: human pancreatic cancer cells PANC-1 xenograft; assay: In-vivo growth of PANC-1 xenografts in nude mice; design: species or system BALB/c nude mice; details: positive controls: cisplatin 1.5 mg/kg/day, endostar 8 mg/kg
Experimental: as §11, §12, §13

[25] = Mus musculus, Lewis lung carcinoma
[26] = Homo sapiens, BXPC-3, 72 h after treatment

Row | Compound | IC50 [1, 25] [µM] | IC50 (human neuroma cells D54; Homo sapiens) [µM] | IC50 [2, 26] [µM] | IC50 [3] [µM] | IC50 [4] [µM] | IC50 [5] [µM] | IC50 [6] [µM] | IC50 ([7]; Homo sapiens) [µM] | IC50 [8] [µM] | IC50 [9] [µM] | IC50 [10] [µM] | IC50 [11] [µM] | IC50 [12] [µM] | IC50 [13] [µM] | IC50 [14] [µM] | IC50 (mouse melanoma cells B16; Mus musculus) [µM] | IC50 [15] [µM] | IC50 [16] [µM] | IC50 ([17]; Homo sapiens) [µM] | IC50 [18] [µM] | other results
1 | O=C(O)c1cc2cc(Cl)cc(Cl)c2oc1=O [Compound IIIg, 6,8-dichloro-coumarin-3-carboxylic acid] | 250 | 300 | 300 | 330 | 490 | 480 | 350 | 260 | 460 | 430 | 310 | 400 | 300 | 420 | 420 | 500 | 410 | 250 | 350 | 380 | 
2 | N.N.[Cl][Pt][Cl] [Cisplatin, reference compound] |  |  |  |  |  |  |  |  |  |  |  |  |  |  |  |  |  |  |  |  | IC50 (human neuroma cells D54): 21 µM; Curative effect (inhibition rate %) of tumor weight [19]: A.39.9% ± 7.8;; IC50 [7]: 66 µM; Curative effect (inhibition rate %) of tumor weight [20]: A.36.6% ± 7.5; Curative effect (inhibition rate %) of tumor weight [21]: A/61.3% ± 6.7*;; Curative effect (inhibition rate %) of tumor weight [22]: A.69.6% ± 7.9;; Curative effect (inhibition rate %) of tumor weight [23]: A/46.7% ± 6.5*;; Curative effect (inhibition rate %) of tumor weight [24]: A/25.3% ± 7.7; IC50 (mouse melanoma cells B16): 67 ± 30 µM; IC50 [17]: 1.6 µM
3 | O=C(O)c1cc2cc([N+](=O)[O-])ccc2oc1=O [Compound IIIf, 6-nitrocoumarin-3-carboxylic acid] | 370 | 300 | 114 | 580 | 460 | 460 | 450 | 580 | 470 | 430 | 530 | 460 | 300 | 360 | 300 | 670 | 400 | 300 | 400 | 650 | 
4 | O=C(O)c1cc2cc(F)ccc2oc1=O [Compound IIIe, 6-fluorocoumarin-3-carboxylic acid] | 380 | 300 | 500 | 450 | 490 | 570 | 560 | 600 | 520 | 480 | 520 | 450 | 300 | 400 | 300 | 600 | 390 | 380 | 500 | 700 | 
5 | O=C1OC(=O)[C@H]2[C@@H]1[C@@H]1CC[C@H]2O1 [Norcantharidin, reference compound] |  |  |  |  |  |  |  |  |  |  |  |  |  |  |  |  |  |  |  |  | IC50 [1]: 15 µM; IC50 ([2]; 72 h after treatment): 60 µM
